The values below come from BindingDB's records for doi:10.1016/s0960-894x(02)00302-5 (Wyeth Research, 2002).

Sequence of Proto-oncogene tyrosine-protein kinase Src (P12931 2-536 limits assumed): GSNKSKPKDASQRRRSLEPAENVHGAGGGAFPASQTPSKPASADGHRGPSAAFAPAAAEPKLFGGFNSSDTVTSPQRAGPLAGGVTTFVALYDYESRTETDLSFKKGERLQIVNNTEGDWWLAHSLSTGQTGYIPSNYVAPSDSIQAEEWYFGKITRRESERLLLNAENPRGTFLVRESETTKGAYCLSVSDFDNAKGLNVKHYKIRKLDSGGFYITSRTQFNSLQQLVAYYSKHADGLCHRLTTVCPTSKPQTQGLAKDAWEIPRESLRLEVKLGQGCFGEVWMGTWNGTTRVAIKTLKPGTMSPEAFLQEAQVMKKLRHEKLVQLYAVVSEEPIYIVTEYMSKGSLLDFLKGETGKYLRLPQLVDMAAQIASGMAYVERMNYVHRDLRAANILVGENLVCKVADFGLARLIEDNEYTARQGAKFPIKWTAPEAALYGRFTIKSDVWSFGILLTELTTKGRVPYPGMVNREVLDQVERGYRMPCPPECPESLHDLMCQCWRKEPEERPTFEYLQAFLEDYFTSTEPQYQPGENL

In this assay the target is Proto-oncogene tyrosine-protein kinase Src (Homo sapiens, UniProt P12931). Kind of assay: Kinase inhibition Assay. The settings on record: pH 7.5; 30 °C. How it is done:
Src kinase activity was measured in an ELISA format. IC50 is the inhibitor concentration which inhibits 50% of kinase activity that catalyzes the transfer of the terminal phosphate from ATP to the substrate.
Usually IC50 stands for the point on the concentration scale where inhibition reaches its midpoint. Lower therefore signals higher potency. `COc1cc(Nc2c(C#N)cnc3cc(-c4ccc(CN5CCCCC5)s4)ccc23)c(Cl)cc1Cl` [4-[(2,4-dichloro-5-methoxyphenyl)amino]-7-[5-(piperidin-1-ylmethyl)thiophen-2-yl]quinoline-3-carbonitrile] had an IC50 of 4.2 nM.

Regarding `COc1cc(Nc2c(C#N)cnc3cc(-c4ccc(CN5CCSCC5)s4)ccc23)c(Cl)cc1Cl` [4-[(2,4-dichloro-5-methoxyphenyl)amino]-7-[5-(thiomorpholin-4-ylmethyl)thiophen-2-yl]quinoline-3-carbonitrile], the IC50 was 4.4 nM.

For the compound `COc1cc(Nc2c(C#N)cnc3cc(-c4ccc(CN5CCC(O)CC5)s4)ccc23)c(Cl)cc1Cl` [4-[(2,4-dichloro-5-methoxyphenyl)amino]-7-{5-[(4-hydroxypiperidin-1-yl)methyl]thiophen-2-yl}quinoline-3-carbonitrile], 2 nM corresponded to half-maximal inhibition (IC50).
